Tested on: Eimeria tenella sporocytes
Experiment: in vitro comparative trials for effectiveness: chicken fibroblasts infected with E. tenella sporocytes
Assay type: cell-based
Details: 24 hours of incubation; for cells quantified in 9 fields, X (±SD): CS-3 chicken fibroblasts + E. tenella sporocytes (about 3 per cell), microscope 40 X; for cells quantified in 9 fields, Means mean (±SD): mean of replications A to C, CS-3 chicken fibroblasts + E. tenella sporocytes

Cc1cc(-n2c(=O)[nH]c(=O)n(C)c2=O)ccc1Oc1ccc(SC(F)(F)F)cc1 [Example 2]
cells quantified in 9 fields, X (±SD) (Replication A): 999 (12)
cells quantified in 9 fields, X (±SD) (Replication B): 899 (8)
cells quantified in 9 fields, X (±SD) (Replication C): 789 (6)
cells quantified in 9 fields, Means mean (±SD): 895 (105)

CO[C@@H]1[C@@H](OC)[C@H](C)[C@@](O)(CC(=O)O)O[C@H]1[C@H](C)[C@H]1O[C@@]2(CC[C@@](C)([C@H]3CC[C@@](C)([C@@H]4O[C@@H]([C@H]5O[C@](C)(O)[C@H](C)C[C@@H]5C)C[C@@H]4O[C@@H]4C[C@H](OC)[C@@H](OC)[C@H](C)O4)O3)O2)C[C@H](O)[C@H]1C [Example 1, Maduramicine]
cells quantified in 9 fields, X (±SD) (Replication A): 268 (29)
cells quantified in 9 fields, X (±SD) (Replication B): 156 (35)
cells quantified in 9 fields, X (±SD) (Replication C): 239 (21)
cells quantified in 9 fields, Means mean (±SD): 221 (58)

Source: patent EP2319515A1, “COCCIDICIDE COMBINATION FOR VETERINARY USE” (Laboratorio Avi-Mex, S.A. De C.V., priority 2008, dated 2010)
